Results from PubChem BioAssay AID720589 (Broad Institute, 2013).
Calls of active or inactive are those of the source.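 Rule for the calls: active = fitted curve drops below -35% activity at a concentration within twice the top valid tested dose; inconclusive = no clear call, values can overlap the other calls; inactive = signal rising instead of falling, among other cases.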

Experiment: HepG2 hepatoma cell cytotoxicity, dose response, cytotoxicity control, CellTiter-Glo luminescence, cherry-pick, set 3 (AID 720589)
Conditions: HepG2 viability, ATP luminescence (CellTiter-Glo), 72 h, hits give low values
[1] = at 0.035 µM, 0% = untreated, negative = ATP loss
[2] = at 0.011 µM, 0% = untreated, negative = ATP loss
[3] = at 0.1 µM, 0% = untreated, negative = ATP loss
[4] = at 26 µM, 0% = untreated, negative = ATP loss
[5] = at 2.85 µM, 0% = untreated, negative = ATP loss
[6] = at 0.9 µM, 0% = untreated, negative = ATP loss
[7] = at 0.3 µM, 0% = untreated, negative = ATP loss
[8] = at 8 µM, 0% = untreated, negative = ATP loss

In the case of `Nc1ncn([C@@H]2O[C@H](CO)[C@@H](O)[C@H]2O)c(=O)n1`, the max activity [1] is reported as 16% (inactive).

In the case of `CC(=O)Nc1cccc(-c2ccnc3c2CC(C)(C(=O)NCc2ccc(N(C)C)cc2)O3)c1` (configuration not stated), the max activity [2] is reported as 32.9% (inactive).

In the case of `CCc1ccc(/C=C2\SC(=S)N(CCC(=O)Nc3cc(C)on3)C2=O)cc1`, the max activity [1] is reported as -25.9% (inactive).

In the case of `Cc1cccc(/C=N/Nc2ccc3ccccc3n2)c1`, the max activity [2] is reported as 29% (inactive).

In the case of `CCCNC(=O)[C@@H]1[C@@H](CO)[C@@H]2Cn3c(ccc(-c4ccccc4)c3=O)[C@H]1N2C(=O)CC`, the max activity [3] is reported as -16.5% (inactive).

In the case of `N/C(Cc1nc(-c2ccc(F)cc2)cs1)=N\O`, the max activity [2] is reported as 20.4% (inactive).

For `CC1=NN(c2ccccc2)C(=O)/C1=C\C=C\c1ccccc1`, the max activity [4] was -54.8% (inactive).

For `O=C1NC(=S)NC(=O)C1=Cc1cccn1-c1ccc(O)cc1`, the max activity (at 26 µM) was -27.6% (inactive).

With `CN(C)C(=O)c1cccc(-c2ccc(C3[C@@H]4CN(Cc5nccs5)C[C@H]3N4)cc2)c1` (some centres not stated) the max activity [3] was -30.3% (inactive).

In the case of `COc1ccc(C(=O)NCCNc2nc3cc(C)cc(C)c3cc2C#N)c(OC)c1`, the max activity [5] is reported as -25.6% (inactive).

With `CCOc1ccc(-c2cc(CCCC(=O)NCc3ccc(C)cc3)no2)cc1` the max activity [5] was -24.4% (inactive).

For `O=c1[nH]c(/C=C2\C=Nc3ccccc32)c(O)n1Cc1ccccc1F`, the max activity [4] was -19.8% (inactive).

With `CN(C)C(=O)c1ccc(-c2ccccc2[C@@H]2[C@@H](CO)N(C(=O)C3CC3)[C@H]2C#N)cc1` the max activity (at 0.012 µM, 0% = untreated, negative = ATP loss) was 20.5% (inactive).

In the case of `CCCCCCN(C(=O)CCCCCN1C(=O)NC(c2ccc(Cl)cc2)C(C(=O)OCc2ccccc2)=C1C)C(C(=O)NCCCC)c1ccc(OCC(=O)OC)c(C(=O)OC)c1` (configuration not stated), the max activity [5] is reported as -30.9% (inactive).

With `N#C[C@H]1[C@H](c2ccc(-c3ccccc3F)cc2)[C@@H](CO)N1C(=O)c1ccccn1` the max activity [6] was -27.4% (inactive).

With `CC(=O)c1ccc(NC(=O)c2noc3c2CCC3)cc1` the max activity [3] was -34.6% (inactive).

In the case of `COc1cc(/C=C/C(=O)/C=C(O)/C=C/c2ccc(O)c(OC)c2)ccc1O`, the max activity [7] is reported as -31.5% (inactive).

With `CCOc1ccc(C(c2c(NC(=O)c3ccccc3)sc(C)c2C)N2CCN(CCO)CC2)cc1` (configuration not stated) the max activity [4] was -11.9% (inactive).

With `Nc1ccc2c(c1)OC1(CCCC1)O2` the max activity [8] was -32.8% (inactive).

In the case of `Cc1c(Cc2ccc3c(c2)OCO3)sc(NC(=O)C(C)(C)C)c1C#N`, the max activity [3] is reported as -26.7% (inactive).

In the case of `C=CCOc1ccccc1C(=O)/C=C1/C(=O)Nc2ccccc21`, the max activity [4] is reported as -31.5% (inactive).

With `Cc1cc(C(=O)Nc2ccc3c(c2)C(=O)N(C)[C@@H]2CC[C@@H](CC(=O)NCc4ccc(-c5ccccc5)cc4)O[C@H]2CO3)no1` the max activity [7] was -28.4% (inactive).

With `C/C(=N\OCc1cccc(C(=O)O)c1)c1ccc(Cl)cc1` the max activity [1] was -7.45% (inactive).

With `COc1ccc(N=C(NN)c2ccc3ccccc3n2)cc1` the max activity [8] was -15.2% (inactive).

For `CCOc1cc(N2CCC(O)CC2)ccc1Nc1ncc2c(n1)N(C)c1ccccc1C(=O)N2C`, the max activity [4] was -18.4% (inactive).

In the case of `Cc1nc2ncccn2c1-c1csc(Nc2ccc(O)cc2)n1`, the max activity [4] is reported as -23.1% (inactive).

In the case of `CC(C)(C)C(=O)Nc1ccc(N=Nc2ccccc2)cc1`, the max activity [7] is reported as -12.3% (inactive).

For `Nc1ccc2oc(-c3cc(Br)ccc3Cl)nc2c1`, the max activity [1] was -30.5% (inactive).

In the case of `N#Cc1cccc(-c2ccc(C3[C@@H]4CN(C(=O)Cc5ccncc5)C[C@H]3N4)cc2)c1` (some centres not stated), the max activity [2] is reported as 21% (inactive).

With `Cc1ccccc1N=Nc1c(O)n(C)c2ccccc12` the max activity [5] was -14.8% (inactive).

For `C[C@H]1CN([C@@H](C)CO)C(=O)Cc2cc(NC(=O)CCCCCC(=O)Nc3ccccc3N)ccc2O[C@H]1CN(C)Cc1ccc(C(F)(F)F)cc1`, the max activity (at 1 µM, 0% = untreated, negative = ATP loss) was -22.7% (inactive).

In the case of `Cc1c(Cl)cnc(NC(=O)COC(=O)c2ccc3ncsc3c2)c1Cl`, the max activity [1] is reported as -18.7% (inactive).

With `Cc1ccc(S(=O)(=O)N(C)C[C@@H]2Oc3cc(C#Cc4ccncc4)ccc3S(=O)(=O)N([C@@H](C)CO)C[C@H]2C)cc1` the max activity [3] was -24.6% (inactive).

With `CC(=O)c1ccc(N=C2C(=O)Nc3ccccc32)cc1` the max activity [3] was -37.4% (inactive).

With `C[C@@H]1CN([C@@H](C)CO)S(=O)(=O)c2ccc(C#Cc3ccncc3)cc2O[C@H]1CN(C)S(=O)(=O)c1ccccc1` the max activity [2] was -29.6% (inactive).

With `COc1cc(-c2cnc3c(NC=O)cc(-c4cccc(NC(C)=O)c4)cn23)cc(OC)c1OC` the max activity [7] was -32.8% (inactive).

In the case of `Brc1ccc(CSc2nnc(-c3ccco3)o2)cc1`, the max activity [6] is reported as -28.4% (inactive).

For `O=C(NC1CCCC1)C(c1ccccc1)n1c(CSCCOc2ccccc2)nc2ccccc21` (configuration not stated), the max activity [7] was -34.7% (inactive).

With `COc1ccc(S(=O)(=O)N2CC[C@@H]3[C@@H](CO)Nc4ccc(-c5ccc(C#N)cc5)cc4[C@@H]32)cc1` the max activity [1] was -30.2% (inactive).

For `C[C@@H]1CN([C@H](C)CO)C(=O)c2cc(NC(=O)CCCCCC(=O)Nc3ccccc3N)ccc2O[C@H]1CN(C)S(=O)(=O)c1ccc(Cl)cc1`, the max activity [6] was -26.7% (inactive).

For `CC(=O)ON=C1C=CC(=C(C#N)c2ccccc2)C=C1`, the max activity [4] was -27.6% (inactive).

For `CC(C)Oc1ccc(Br)cc1C(=O)N/N=C/c1c[nH]c2ccccc12`, the max activity [5] was -17% (inactive).

In the case of `COc1ccc(S(=O)(=O)N2CCCc3nc(-c4ccc(F)cc4)ccc32)cc1`, the max activity [7] is reported as -23.5% (inactive).

For `CC(C)(C)C(=O)Cn1ncc(Cl)c(Cl)c1=O`, the max activity [4] was -23.7% (inactive).

In the case of `COC(=O)C[C@H]1C=C[C@@H](NC(=O)Nc2ccc(C(F)(F)F)cc2)[C@H](CO)O1`, the max activity [3] is reported as -17.7% (inactive).

With `CCCn1c(C)cc(C(=O)CN2C(=O)c3ccccc3S2(=O)=O)c1C` the max activity [1] was 5.3% (inactive).

With `c1cncc(-c2ccc([C@@H]3[C@H]4CNC[C@@H]3N4CC3CCOCC3)cc2)c1` the max activity [6] was -28.8% (inactive).

With `CCN1CCN(/C=N/c2nc3c(s2)CCCC3)CC1` the max activity [2] was -25.3% (inactive).

In the case of `Cc1cccc(N2CCN(C3C(=O)Nc4ccccc4-n4nnnc43)CC2)c1C` (configuration not stated), the max activity [2] is reported as 12.3% (inactive).

In the case of `O=C1C(=O)N(CCS(=O)(=O)c2ccccc2)c2ccccc21`, the max activity [4] is reported as 24.1% (inactive).

With `COc1ccc(CN(C)c2ncnc3sccc23)c(OC)c1OC` the max activity [7] was -16.5% (inactive).

For `COc1ccc(C=NNc2nc3ccccc3s2)cc1`, the max activity [2] was -25.7% (inactive).

With `CCOc1cc2[nH]c(=S)n(Cc3ccc(C(=O)N4CCN(C)CC4)cc3)c(=O)c2cc1OCC` the max activity [8] was -29.8% (inactive).

For `COc1ccc(/C=C2\SC(=O)N(CCCC(=O)Nc3ccc(C(=O)O)cc3)C2=O)cc1`, the max activity [1] was 21% (inactive).

In the case of `COc1ccc(-c2cnc3c(NC=O)cc(-c4ccccc4OC)cn23)cc1OC`, the max activity [5] is reported as -32.9% (inactive).

With `O=C(NCc1cccnc1)C1Cc2c(-c3ccc(Cl)cc3)ccnc2O1` (configuration not stated) the max activity [4] was -18.3% (inactive).

For `CCOC(=O)Cc1csc(NC(=S)NC(=O)c2ccc(C)cc2)n1`, the max activity [5] was 11.3% (inactive).

With `COC(=O)C[C@@H]1CC[C@@H]2[C@H](COc3ccc(NC(=O)c4cc(F)cc(F)c4)cc3C(=O)N2C)O1` the max activity [2] was -46.8% (inactive).

With `O=C1CCC2S/C(=C/Nc3ccc(C(F)(F)F)cc3)C(=O)N12` (configuration not stated) the max activity [4] was 25.6% (inactive).

For `O=C1NC2C(=CC(O)C(O)C2O)c2cc3c(cc21)OCO3` (configuration not stated), the max activity (at 0.035 µM) was -17.9% (inactive).

With `COc1ccc(NC(=O)c2cc3ccccc3oc2=O)cc1` the max activity [5] was -36.9% (inactive).

With `CC(=O)Oc1ccc(-c2ccc(C(=O)Nc3cccc(S(=O)(=O)N4CCOCC4)c3)cc2)cc1` the max activity [4] was -21.6% (inactive).

In the case of `COc1cccc(CN2CCC2(C)C(=O)Nc2cccc3cccnc23)c1F` (configuration not stated), the max activity [4] is reported as -24% (inactive).

For `COc1ccc(/C=C(/C(=O)c2cccs2)N2C=CC=CC2=C(C#N)C#N)cc1`, the max activity [4] was -33.6% (inactive).

In the case of `CN(C)[C@@H]1CCC[C@@H]1OC(=O)C(c1ccccc1)c1ccccc1`, the max activity [2] is reported as 32.6% (inactive).

In the case of `C[C@@H]1CN([C@@H](C)CO)S(=O)(=O)c2ccc(C#CCN(C)C)cc2O[C@@H]1CN(C)Cc1ccncc1`, the max activity [3] is reported as -45% (inactive).

With `C[C@H](CO)N1C[C@H](C)[C@H](CN(C)Cc2ccc(C(F)(F)F)cc2)Oc2ccc(NC(=O)CCCCCC(=O)Nc3ccccc3N)cc2CC1=O` the max activity [8] was -23.5% (inactive).

With `O=C1Nc2ccccc2C1=Nc1ccccc1-c1ccccc1` the max activity [3] was 10.3% (inactive).

For `O=C(O)CN1C(=O)/C(=C\c2ccccc2OCc2ccc(Cl)cc2Cl)SC1=S`, the max activity [1] was -18.9% (inactive).

In the case of `O=c1c2ccccc2oc2cc(C#CC3(O)CCCCC3)ccc12`, the max activity [7] is reported as 13.9% (inactive).

With `Cc1csc(NC(=O)CCc2c(C)nc3cc(-c4ccc(Cl)cc4)nn3c2C)n1` the max activity [2] was 11.5% (inactive).

With `COc1cc(C(c2c(C)[nH][nH]c2=O)c2c(C)[nH][nH]c2=O)ccc1OC(C)C` the max activity [2] was 22.1% (inactive).

For `Cc1ccc(NC(=O)COC(=O)c2ccc3c(c2)OCO3)cc1S(=O)(=O)N1CCCCC1`, the max activity [6] was -30.2% (inactive).

For `CC1=NN(c2ccc(C)cc2)C(=O)/C1=C\C=C\c1ccccc1`, the max activity [4] was -23.5% (inactive).

For `C=CCn1c(O)c(N=Nc2ccccc2)c2ccccc21`, the max activity [7] was -21.6% (inactive).

In the case of `COc1ccc(OC)c(-c2nnc3n2N=C(c2ccc(OC)c(OC4CCCC4)c2)CS3)c1`, the max activity [6] is reported as -30% (inactive).

For `CCOc1ccc(NC(=O)C(=O)N/N=C\c2ccc(CNS(=O)(=O)c3ccccc3)o2)cc1`, the max activity [7] was -36.6% (inactive).
